Laboratory results published in PMC6539005, “Half-Wave Potentials and In Vitro Cytotoxic Evaluation of 3-Acylated 2,5-Bis(phenylamino)-1,4-benzoquinones on Cancer Cells” (Molecules, 2019).
Read-outs that look alike come from different tables or passages of the source. Each block holds one compound with its values, some of them ahead of it.

Assays:
T24 (bladder) cells = experiment: MTT cytotoxicity assay, T24; assay type: cell-based, human; settings: 48 h incubation (b12: 72 h), n = 3, read-out: IC50 ± SEM T24
Method: (§1) The 3-acyl-2,5-bis(phenylamino)-1,4-benzoquinones 2a–q were evaluated for their in vitro cytotoxic activities against normal human embryonic kidney cells (HEK-293 cells) and two human cancer cell lines (T24 and DU-145 cells) in 72 h drug exposure assays. The cytotoxic activities of the new compounds were measured using conventional microculture tetrazolium reduction assays. The cytotoxic activities are expressed in terms of IC50. Doxorubicin, a clinically used anti-cancer agent, was taken as a positive control.
(§2) Human cancer cell lines T24 (bladder) and DU-145 (prostate), and non-tumor HEK-293 cells were obtained from the American Type Culture Collection (ATCC, Manassas, VA, USA). The cultures were maintained at a density of 1× 10^5 cells/mL and the medium was changed at 48- to 72-h intervals. They were cultured in high-glucose Dulbecco’s modified Eagle medium (Gibco, Grand Island, NY, USA) supplemented with 10% fetal calf serum, penicillin (100 U/mL), and streptomycin (100 μg/mL). All cultures were kept at 37 °C in 95% air/5% CO2 at 100% humidity. Phosphate-buffered saline (PBS) was purchased from Gibco. Cells were incubated at the indicated times at 37 °C, with or without quinones at various concentrations.
(§3) The cytotoxicity of the quinones was assessed by following the reduction of MTT (3-(4,5-Dimethylthiazol-2-yl)-2,5-diphenyltetrazolium bromide) to formazan blue. Cells were seeded into 96-well plates at a density of 10,000 cells/well for 24 h and then incubated for 48 h, with or without the quinone derivatives. Doxorubicin was used as the standard chemotherapeutic agent (positive control). Cells were then washed twice with warm PBS and incubated with MTT (0.5 mg/mL) for 2 hours at 37 °C. Blue formazan crystals were solubilized by adding 100 µL DMSO/well, and the optical density of the coloured solutions was subsequently read at 550 nm. Results are expressed as percentage of MTT reduction, compared to untreated control conditions. The IC50 values were calculated using the GraphPad Prism software (San Diego, CA, USA).

[1] = Half-wave potentials by cyclic voltammetry in acetonitrile; assay type: physicochemical; settings: rt, Pt electrode, vs non-aqueous Ag/Ag+, given as negative of potential; for −E^I 1/2: first one-electron reduction, 0.1 M tetraethylammonium tetrafluoroborate; for −E^II 1/2: second one-electron reduction
Method: The members of the 3-acyl-2,5-bis(phenylamino)-1,4-benzoquinone series 2a–q were evaluated for their half-wave potentials (E^I 1/2 and E^II 1/2). They were measured by cyclic voltammetry in acetonitrile at room temperature, using a platinum electrode and 0.1 M tetraethylamoniumtetrafluoroborate as the supporting electrolyte. The voltammograms were run in the potential range from 0.0 to −2.0 V versus non-aqueous Ag/Ag^+.

HEK-293 kidney cells = experiment: MTT cytotoxicity assay, HEK-293; assay type: cell-based; settings: Homo sapiens, HEK293, non-tumor cells, 48 h incubation (b12: 72 h), n = 3, read-out: IC50 ± SEM HEK-293
Method: as §1, §2, §3

DU-145 (prostate) cells = experiment: MTT cytotoxicity assay, DU-145; assay type: cell-based; settings: Homo sapiens, 48 h incubation (b12: 72 h), n = 3, read-out: IC50 ± SEM DU-145
Method: as §1, §2, §3

T24 and DU-145 cells = experiment: MTT cytotoxicity assay, both cancer cell lines; assay type: cell-based; settings: Homo sapiens; mean of T24 and DU-145 IC50
Method: as §1, §2, §3

[2] = test system: human colon adenocarcinoma; set-up: method as in PMID 3746824; settings: cited from earlier work

SMILES: CC(=O)C1=C(Nc2ccccc2)C(=O)C=C(Nc2ccccc2)C1=O [2a, 3-Acetyl-2,5-bis(phenylamino)-1,4-benzoquinone]
IC50 (T24 (bladder) cells; Homo sapiens): > 100 µM
−E^I 1/2 [1]: 565 mV
−E^II 1/2 [1]: 1170 mV
IC50 (HEK-293 kidney cells): > 100 µM
IC50 (DU-145 (prostate) cells): 96 ± 7.9 µM
IC50 (T24 and DU-145 cells): > 98 µM

SMILES: COc1ccc(C(=O)C2=C(Nc3ccccc3)C(=O)C=C(Nc3ccccc3)C2=O)cc1OC [2e, 3-(3,4-Dimethoxybenzoyl)-2,5-bis(phenylamino)-1,4-benzoquinone]
IC50 (T24 (bladder) cells; Homo sapiens): 58.2 ± 7.1 µM
−E^I 1/2 [1]: 560 mV
−E^II 1/2 [1]: 1140 mV
IC50 (HEK-293 kidney cells): > 100 µM
IC50 (DU-145 (prostate) cells): 47.7 ± 4.2 µM
IC50 (T24 and DU-145 cells): 52.9 µM

SMILES: COc1cc(C(=O)C2=C(Nc3cc(OC)c(OC)c(OC)c3)C(=O)C=C(Nc3cc(OC)c(OC)c(OC)c3)C2=O)ccc1O [2k, 3-(4-Hydroxy-3-methoxybenzoyl)-2,5-bis-[(3,4,5-trimethoxyphenyl)amino]-1,4-benzoquinone]
IC50 (T24 (bladder) cells; Homo sapiens): > 100 µM
−E^I 1/2 [1]: 610 mV
−E^II 1/2 [1]: 1010 mV
IC50 (HEK-293 kidney cells): 28.3 ± 1.5 µM
IC50 (DU-145 (prostate) cells): 45.9 ± 3.2 µM
IC50 (T24 and DU-145 cells): > 72.9 µM

SMILES: COc1cc(NC2=CC(=O)C(Nc3cc(OC)c(OC)c(OC)c3)=C(C(=O)c3ccco3)C2=O)cc(OC)c1OC [2l, 3-(Furan-2-carbonyl)-2,5-bis-[(3,4,5-trimethoxyphenyl)amino]-1,4-benzoquinone]
IC50 (T24 (bladder) cells; Homo sapiens): 47.1 ± 2 µM
−E^I 1/2 [1]: 790 mV
−E^II 1/2 [1]: 930 mV
IC50 (HEK-293 kidney cells): 33 ± 4.8 µM
IC50 (DU-145 (prostate) cells): 23 ± 2.3 µM
IC50 (T24 and DU-145 cells): 35 µM

SMILES: COc1cc(NC2=CC(=O)C(Nc3cc(OC)c(OC)c(OC)c3)=C(C(=O)c3cccs3)C2=O)cc(OC)c1OC [2m, 3-(Thiophen-2-carbonyl)-2,5-bis-[(3,4,5-trimethoxyphenyl)amino]-1,4-benzoquinone]
IC50 (T24 (bladder) cells; Homo sapiens): 63.2 ± 0.6 µM
−E^I 1/2 [1]: 850 mV
−E^II 1/2 [1]: 1010 mV
IC50 (HEK-293 kidney cells): 30.7 ± 3.1 µM
IC50 (DU-145 (prostate) cells): 48.6 ± 3 µM
IC50 (T24 and DU-145 cells): 55.9 µM

SMILES: COc1ccc(C(=O)C2=C(Nc3ccc(F)cc3)C(=O)C=C(Nc3ccc(F)cc3)C2=O)cc1 [2ñ, 3-(4-Methoxybenzoyl)-2,5-bis-[(4-fluorophenyl)amino]-1,4-benzoquinone]
IC50 (T24 (bladder) cells; Homo sapiens): > 100 µM
−E^I 1/2 [1]: 710 mV
−E^II 1/2 [1]: 860 mV
IC50 (HEK-293 kidney cells): > 100 µM
IC50 (DU-145 (prostate) cells): > 100 µM
IC50 (T24 and DU-145 cells): > 100 µM

SMILES: O=C1C=C(Nc2ccccc2)C(=O)C=C1Nc1ccccc1 [A, 2,5-bis(phenylamino)benzoquinone]
in vitro inhibitory activity against human colon adenocarcinoma proliferation [2]: good in vitro inhibitory activity

SMILES: COc1cccc2c1C(=O)c1c(O)c3c(c(O)c1C2=O)C[C@@](O)(C(=O)CO)C[C@@H]3O[C@H]1C[C@H](N)[C@H](O)[C@H](C)O1 [DOX, Doxorubicin, reference compound]
IC50 (T24 (bladder) cells): 0.46 ± 0.08 µM
IC50 (T24 (bladder) cells; Homo sapiens): 0.43 µM
IC50 (DU-145 (prostate) cells): 0.93 ± 0.06 µM
IC50 (T24 and DU-145 cells): 0.69 µM

The next lines start with results.

−E^I 1/2 [1]: 570 mV
−E^II 1/2 [1]: 1150 mV
SMILES: CCCC(=O)C1=C(Nc2ccccc2)C(=O)C=C(Nc2ccccc2)C1=O [2b, 3-Butiryl-2,5-bis(phenylamino)-1,4-benzoquinone]
IC50 (T24 (bladder) cells; Homo sapiens): > 100 µM
IC50 (HEK-293 kidney cells): > 100 µM
IC50 (DU-145 (prostate) cells): 92.2 ± 8.7 µM
IC50 (T24 and DU-145 cells): > 96.1 µM

−E^I 1/2 [1]: 560 mV
−E^II 1/2 [1]: 1120 mV
SMILES: COc1cc(C(=O)C2=C(Nc3ccccc3)C(=O)C=C(Nc3ccccc3)C2=O)cc(OC)c1OC [2f, 3-(3,4,5-Trimethoxybenzoyl)-2,5-bis(phenylamino)-1,4-benzoquinone]
IC50 (T24 (bladder) cells; Homo sapiens): 51.8 ± 6.2 µM
IC50 (HEK-293 kidney cells): 85.8 ± 0.9 µM
IC50 (DU-145 (prostate) cells): 20.4 ± 2.1 µM
IC50 (T24 and DU-145 cells): 36.1 µM

−E^I 1/2 [1]: 570 mV
−E^II 1/2 [1]: 870 mV
SMILES: O=C1C=C(Nc2ccccc2)C(=O)C(C(=O)c2ccco2)=C1Nc1ccccc1 [2g, 3-(Furan-2-carbonyl)-2,5-bis(phenylamino)-1,4-benzoquinone]
IC50 (T24 (bladder) cells; Homo sapiens): 40.2 ± 4 µM
IC50 (HEK-293 kidney cells): 61.7 ± 4.2 µM
IC50 (DU-145 (prostate) cells): 39.9 ± 3.6 µM
IC50 (T24 and DU-145 cells): 40 µM

−E^I 1/2 [1]: 500 mV
−E^II 1/2 [1]: 1030 mV
SMILES: O=C1C=C(Nc2ccccc2)C(=O)C(C(=O)c2cccs2)=C1Nc1ccccc1 [2h, 3-(Thiophen-2-carbonyl)-2,5-bis(phenylamino)-1,4-benzoquinone]
IC50 (T24 (bladder) cells; Homo sapiens): 75.6 ± 9.1 µM
IC50 (HEK-293 kidney cells): > 100 µM
IC50 (DU-145 (prostate) cells): 80.9 ± 9.7 µM
IC50 (T24 and DU-145 cells): 78.2 µM

−E^I 1/2 [1]: 800 mV
−E^II 1/2 [1]: 950 mV
SMILES: COc1cc(NC2=CC(=O)C(Nc3cc(OC)c(OC)c(OC)c3)=C(C(=O)c3ccccc3)C2=O)cc(OC)c1OC [2i, 3-Benzoyl-2,5-bis-[(3,4,5-trimethoxyphenyl)amino]-1,4-benzoquinone]
IC50 (T24 (bladder) cells; Homo sapiens): > 100 µM
IC50 (HEK-293 kidney cells): > 100 µM
IC50 (DU-145 (prostate) cells): 92.9 ± 1.4 µM
IC50 (T24 and DU-145 cells): > 96.4 µM

−E^I 1/2 [1]: 740 mV
−E^II 1/2 [1]: 950 mV
SMILES: COc1ccc(C(=O)C2=C(Nc3cc(OC)c(OC)c(OC)c3)C(=O)C=C(Nc3cc(OC)c(OC)c(OC)c3)C2=O)cc1 [2j, 3-(4-Methoxybenzoyl)-2,5-bis-[(3,4,5-trimethoxyphenyl)amino]-1,4-benzoquinone]
IC50 (T24 (bladder) cells; Homo sapiens): 85.3 ± 1.9 µM
IC50 (HEK-293 kidney cells): 56.9 ± 5.2 µM
IC50 (DU-145 (prostate) cells): 72.4 ± 2.6 µM
IC50 (T24 and DU-145 cells): 78.8 µM

−E^I 1/2 [1]: 560 mV
−E^II 1/2 [1]: 1040 mV
SMILES: O=C1C=C(Nc2ccc(F)cc2)C(=O)C(C(=O)c2ccccc2)=C1Nc1ccc(F)cc1 [2n, 3-Benzoyl-2,5-bis-[(4-fluorophenyl)amino]-1,4-benzoquinone]
IC50 (T24 (bladder) cells; Homo sapiens): 74.5 ± 2.2 µM
IC50 (HEK-293 kidney cells): > 100 µM
IC50 (DU-145 (prostate) cells): > 100 µM
IC50 (T24 and DU-145 cells): > 87.2 µM

−E^I 1/2 [1]: 550 mV
−E^II 1/2 [1]: 920 mV
SMILES: COc1cc(C(=O)C2=C(Nc3ccc(F)cc3)C(=O)C=C(Nc3ccc(F)cc3)C2=O)ccc1O [2o, 3-(4-Hydroxy-3-methoxybenzoyl)-2,5-bis-[(4-fluorophenyl)amino]-1,4-benzoquinone]
IC50 (T24 (bladder) cells; Homo sapiens): > 100 µM
IC50 (HEK-293 kidney cells): > 100 µM
IC50 (DU-145 (prostate) cells): > 100 µM
IC50 (T24 and DU-145 cells): > 100 µM

−E^I 1/2 [1]: 680 mV
−E^II 1/2 [1]: 950 mV
SMILES: O=C1C=C(Nc2ccc(F)cc2)C(=O)C(C(=O)c2ccco2)=C1Nc1ccc(F)cc1 [2p, 3-(Furan-2-carbonyl)-2,5-bis-[(4-fluorophenyl)amino]-1,4-benzoquinone]
IC50 (T24 (bladder) cells; Homo sapiens): > 100 µM
IC50 (HEK-293 kidney cells): 72.8 ± 7 µM
IC50 (DU-145 (prostate) cells): 90 ± 6.4 µM
IC50 (T24 and DU-145 cells): > 95 µM

−E^I 1/2 [1]: 730 mV
−E^II 1/2 [1]: 980 mV
SMILES: O=C1C=C(Nc2ccc(F)cc2)C(=O)C(C(=O)c2cccs2)=C1Nc1ccc(F)cc1 [2q, 3-(Thiophen-2-carbonyl)-2,5-bis-[(4-fluorophenyl)amino]-1,4-benzoquinone]
IC50 (T24 (bladder) cells; Homo sapiens): > 100 µM
IC50 (HEK-293 kidney cells): > 100 µM
IC50 (DU-145 (prostate) cells): > 100 µM
IC50 (T24 and DU-145 cells): > 100 µM
